Results taken from US20230330051A1, “METHOD FOR MODULATING WEIGHT” (Yeda Research and Development Co. Ltd., priority 2020, published 2023).

Assays:
Format in all cases: in vivo, C57BL/6J male mice
[1] = Weight change of naive HFD-consuming mice upon metabolite administration; conditions: naive HFD-consuming 10-week-old C57bl male mice
Description: Mice. Eight-weeks old C57BL/6J male mice were purchased from Harlan. All mice were maintained in the animal facility of the Weizmann Institute and acclimatized for two weeks before the initiation of experiments. Mice were fed on normal chow (NC) or switched to a high-fat diet (HFD, D12492, 60% kcal from fat, Research Diets)/ choline-deficient diet (CDD, rodent diet with 60 kcal % fat without added Choline) three days prior to the experimental starting point. […] For all experiments, the mice were assigned to each group based on their weight in order to create weight-matched groups and eliminate weight differences at the beginning of the experiments. […] Lean and fat mass was determined by nuclear magnetic resonance (NMR) using Bruker minispec LF50.mq7.5 MHZ live mice analyzer.
(§1) Data extraction and compound identification- raw data was extracted, peak-identified and QC processed using Metabolon's hardware and software. […] The cut was then closed with sterile surgical clips and the mice were carefully monitored for any signs of stress, bleeding, pain, or abnormal behavior. […]
Importantly, the predicted levels of biosynthetic enzymes (PICRUSTt2, P542-PWY) of the choline to betaine pathway and the pathway's measured intermediary levels (Choline to Betaine) were altered in actively smoking mice (FIG. 1D). […]

[2] = Smoking cessation-associated weight gain (SCWG) model in mice
Description: Mice. Eight-weeks old C57BL/6J male mice were purchased from Harlan. All mice were maintained in the animal facility of the Weizmann Institute and acclimatized for two weeks before the initiation of experiments. Mice were fed on normal chow (NC) or switched to a high-fat diet (HFD, D12492, 60% kcal from fat, Research Diets)/ choline-deficient diet (CDD, rodent diet with 60 kcal % fat without added Choline) three days prior to the experimental starting point. […] For all experiments, the mice were assigned to each group based on their weight in order to create weight-matched groups and eliminate weight differences at the beginning of the experiments. Two weeks before experimental starting point, antibiotic-treated groups were given a combination of vancomycin (0.5 g/l), ampicillin (1 g/l), neomycin (1 g/l), and metronidazole (1 g/l) ad libitum in their drinking water, referred to as 4-way abx. […] Lean and fat mass was determined by nuclear magnetic resonance (NMR) using Bruker minispec LF50.mq7.5 MHZ live mice analyzer.
Cigarette Smoke Exposure. […] Smoke levels were measured at least twice daily. […]
as §1

[3] = Bomb calorimetry of stool (residual caloric content); conditions: three weeks into DMG or PBS administration; inversely correlates with intestinal energy harvest
Method: Bomb calorimetry. Mice were transferred to a clean single housed cage, fecal samples collected and stored at −80° C. Before use, samples were dried with FreeZone 4.5-liter cascade benchtop freeze dry system (Labconco) for 24 hours. Gross energy content was measured using a water handling system (6510) and a bomb calorimeter (6200) by Parr Instrument Co. The calorimeter energy equivalent factor was determined using benzoic acid standards.

Row | Structure (SMILES) | Weight change upon DMG administration ([1]; osmotic pumps, 100 mg/kg/day, 21 days, vs vehicle (PBS)) | SCWG upon DMG supplementation ([2]; antibiotics-treated smoking-cessation HFD-fed mice, DMG via osmotic pumps started prior to cessation, vs vehicle) | Residual caloric content in stool [3] | Weight gain under ACG consumption ([1]; 7500 mg N-Acetylglycine/kg diet, vs HFD-fed control) | SCWG upon ACG supplementation ([2]; non-antibiotics-treated smoking-cessation mice, HFD-ACG vs HFD)
1 | CN(C)CC(=O)O [DMG, N,N-Dimethylglycine] | significant weight gain | restored SCWG | lower residual calories |  | 
2 | CC(=O)NCC(=O)O [ACG, N-acetylglycine] |  |  |  | significantly lower weight gain | prevented SCWG
